As usually defined, the IC50 is the midpoint of a concentration-inhibition curve.

Experimental findings from publication PMC5688848 (Bioorganic & medicinal chemistry, 2016) are described below.

Ends that are not written are not given here.

Assay [1] deals with His-REV7(R124A)/REV3L(1847–1898) complex (Homo sapiens, UniProt Q9UI95, R124A). The experiment in a line: Thermal shift assay. The following applies: compound 500 μM, protein 5 μM, 4 h at room temperature. Type of assay: binding.
Assay [2] addresses His-REV7(R124A)/biotin-AviTag-REV3L(1846–1898) complex (Homo sapiens, UniProt Q9UI95, R124A). Nature of the assay: Pull-down assay on streptavidin-conjugated agarose beads. Type of assay: binding. The conditions noted are these: compound 50 μM, complex 1 μM, 4°C 20 h.
In assay [3] the test system is HeLa cells. Nature of the assay: Cisplatin sensitization by the clonogenic survival assay. Type of assay: cell-based. The following applies: cisplatin 24 h then compound 75 μM 24 h, 6 more days.
Assay [4] concerns HeLa cells. Nature of the assay: Cell toxicity assay. It is filed as cell-based. The conditions noted are these: 75 μM, 3 days.
The next assay concerns ICLR in COS7 cells. Nature of the assay: ICL repair assay. The conditions noted are these: 75 μM. It is filed as cell-based.
Assay [5] deals with T1, hexahistidine (His)-REV7(R124A) (UniProt Q9UI95 1-211, R124A). The experiment in a line: AlphaScreen or HTRF. In general terms: Bead proximity is the source of the signal in Alpha formats.
T1 sequence (Q9UI95 whole entry R124A): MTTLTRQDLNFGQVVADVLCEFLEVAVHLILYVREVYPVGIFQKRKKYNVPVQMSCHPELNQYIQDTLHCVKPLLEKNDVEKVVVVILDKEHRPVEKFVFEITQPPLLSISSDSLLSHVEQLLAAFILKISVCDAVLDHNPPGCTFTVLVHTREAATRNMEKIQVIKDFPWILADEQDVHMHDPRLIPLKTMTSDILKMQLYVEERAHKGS
For assay [6], the target named is T1, hexahistidine (His)-REV7(R124A). Nature of the assay: AlphaScreen or HTRF. This is another data set of the same source.

Chain of His-REV7(R124A)/REV3L(1847–1898) complex (Q9UI95 whole entry R124A, one chain of several): as the sequence (Q9UI95 whole entry R124A) above
Chain of His-REV7(R124A)/biotin-AviTag-REV3L(1846–1898) complex (Q9UI95 whole entry R124A, one chain of several): as the sequence (Q9UI95 whole entry R124A) above

Regarding `CC(=O)N1CCC(Cn2cnc3scc(-c4ccco4)c3c2=O)CC1` [compound 1], the “Shift in the denaturation point of the His-REV7(R124A)/REV3L(1847–1898) complex” value in assay [1] is “clear shift in the denaturation point”. Besides, the “Isolation of His-REV7(R124A) on streptavidin beads (complex dissociation)” value in assay [2] is given as “significantly inhibited”. As to `CC(=O)N1CCC(Cn2cnc3scc(-c4ccc(C)o4)c3c2=O)CC1` [compound 7], in the assay with HeLa cells [3], the “Normalized number of colonies (clonogenic survival) versus cisplatin only” value is reported as “lesser”. In addition, the “Viability / growth of HeLa cells (alamarBlue), normalized by DMSO” value in the assay with HeLa cells [4] was “decreased HeLa cell growth but did not completely eliminate the cells”. Also, the “ICLR activity (luciferase activity of ICL plasmid normalized to non-ICL plasmid)” value in the assay with ICLR in COS7 cells was “suppressed luciferase activity”. Consider ANILKPLMSPPSREEIMATLL [non-tagged REV3L(1875–1895) peptide], for which the 50% inhibitory concentration (IC50) in assay [5] is 80 nM. In the case of ANILKPLMSPPSREEIMATLL-biotin [C-terminal biotin-tagged REV3L(1875–1895) peptide], the binding result in assay [6] is recorded as “binds”.
